From ChEMBL document CHEMBL3351308, “Allosteric modulation of the G protein-coupled US28 receptor of human cytomegalovirus: are the small-weight inverse agonist of US28 'camouflaged' agonists?” (Bioorg Med Chem Lett, 2014)
Substitutions are numbered along the chain they refer to. Activity calls are given as the source filed them. The calls are words filed in the database; no cut-off is given here.

Legend:
[1] = molecular target: G protein-coupled receptor (Human betaherpesvirus 5, UniProt Q9IP65); experiment: Allosteric modulatory activity at FLAG-tagged human cytomegalovirus US28 receptor delta300 mutant expressed in HEK293T cells by PathDetectElk1 assay; type: cell-based; details: hek-293t
[2] = molecular target: T1, G protein-coupled receptor (Human betaherpesvirus 5) (UniProt Q9IP65); experiment: Allosteric modulatory activity at FLAG-tagged human cytomegalovirus US28 receptor delta300 mutant expressed in HEK293T cells by PathDetectElk1 assay relative to basal level; type: cell-based; details: HEK-293T
T1 sequence (whole entry): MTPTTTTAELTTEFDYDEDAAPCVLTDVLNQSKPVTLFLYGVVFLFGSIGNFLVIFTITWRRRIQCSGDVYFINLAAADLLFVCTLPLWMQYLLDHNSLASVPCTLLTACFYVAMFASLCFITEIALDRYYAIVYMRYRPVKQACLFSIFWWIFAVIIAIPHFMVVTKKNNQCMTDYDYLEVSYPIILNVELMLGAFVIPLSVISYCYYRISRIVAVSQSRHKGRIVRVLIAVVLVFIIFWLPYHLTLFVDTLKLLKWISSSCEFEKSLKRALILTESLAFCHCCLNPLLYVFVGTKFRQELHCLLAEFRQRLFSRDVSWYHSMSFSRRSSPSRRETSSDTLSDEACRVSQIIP

[3] = molecular target: T2, G-protein coupled receptor homolog US28 (Human cytomegalovirus (strain AD169) (HHV-5) (Human herpesvirus 5), UniProt P69332); experiment: Allosteric modulatory activity at FLAG-tagged wild type human cytomegalovirus US28 receptor expressed in HEK293T cells by PathDetectElk1 assay; type: cell-based, Human betaherpesvirus 5, HEK-293T
T2 sequence (P69332 whole entry): T1 sequence (whole entry) with A21T, L25F, N170D, K267R, A346V

[4] = molecular target: T3, G-protein coupled receptor homolog US28 (Human cytomegalovirus (strain AD169) (HHV-5) (Human herpesvirus 5)) (UniProt P69332); experiment: Allosteric modulatory activity at FLAG-tagged wild type human cytomegalovirus US28 receptor expressed in HEK293T cells by PathDetectElk1 assay relative to basal level; type: cell-based; design: concentration or dose not given beside the values; details: Human betaherpesvirus 5; HEK-293T
T3 sequence (whole entry): T1 sequence (whole entry) with A21T, L25F, N170D, K267R, A346V

[5] = molecular target: T1, G protein-coupled receptor (Human betaherpesvirus 5); experiment: Allosteric modulatory activity at FLAG-tagged human cytomegalovirus US28 receptor delta300 mutant expressed in HEK293T cells assessed as reduction in CCL5/Rantes-induced response by PathDetectElk1 assay; type: cell-based; details: HEK-293T
[6] = molecular target: T1, G protein-coupled receptor (Human betaherpesvirus 5); experiment: Effect on CX3CL1/Fractalkine binding to FLAG-tagged human cytomegalovirus US28 receptor delta300 mutant expressed in HEK293T cells; type: cell-based; details: HEK-293T
[7] = molecular target: T1, G protein-coupled receptor (Human betaherpesvirus 5); experiment: Allosteric modulatory activity at FLAG-tagged human cytomegalovirus US28 receptor delta300 mutant expressed in HEK293T cells at 10 uM in presence of CX3CL1/Fractalkine by PathDetectElk1 assay; type: cell-based; details: HEK-293T
[8] = molecular target: T1, G protein-coupled receptor (Human betaherpesvirus 5); experiment: Allosteric modulatory activity at FLAG-tagged human cytomegalovirus US28 receptor delta300 mutant expressed in HEK293T cells assessed as reduction in CX3CL1/Fractalkine-induced response by PathDetectElk1 assay; type: cell-based; details: HEK-293T
[9] = molecular target: T1, G protein-coupled receptor (Human betaherpesvirus 5); experiment: Increase in CX3CL1/Fractalkine binding to FLAG-tagged human cytomegalovirus US28 receptor delta300 mutant expressed in HEK293T cells; type: cell-based; details: HEK-293T

SMILES	EC50 [1]	pEC50 [1]	Efficacy [2]	EC50 [3]	Efficacy [4]	Activity [5]	Activity [6]	Activity [7]	Activity [8]	Activity [9]
CCCCCCCCCC(=O)N(CCN(C)C)CC1(C)Cc2ccccc2C(=O)N1 (stereo not given)	> 10000 nM	< 5	> 180%	1500 nM	-20%	–	–	–	–	–
CC1(CCO)Cc2ccccc2C(=O)N1c1ccccc1 (stereo not given)	3100 nM	5.51	-21%	1000 nM	-14%	–	–	–	–	–
CSc1ccc2c(c1)C(N1CCN(C)CC1)Cc1ccccc1S2 (stereo not given) [METITEPINE]	330 nM	6.48	110%	350 nM	10%	–	–	–	–	–
CC1(COC(=O)Cc2ccccc2)Cc2ccccc2CN1C(=O)Cc1ccccc1 (stereo not given)	2500 nM	5.59	-29%	3400 nM	-37%	Active	inactive	inactive	Dose-dependent effect	–
N#CC(CCCN1CCC(O)(c2ccc(Cl)cc2)CC1)(c1ccccc1)c1ccccc1 [BERLEX COMPOUND]	> 10000 nM	< 5	> 180%	4500 nM	-22%	–	–	–	–	–
CC1(CO)Cc2ccccc2C(=O)N1c1ccccc1 (stereo not given)	930 nM	6.03	27%	4400 nM	41%	–	–	–	–	Active
